Assays:
[1] = test system: A549 human lung carcinoma cell line; experiment: MTT cytotoxicity assay in A549 cells: IC50 of single agents and combinations with PM01183; format: cell-based; conditions: Homo sapiens, A549, 72 h
Outline: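 A549 cells seeded at 5,000 per well, grown 24 h drug-free, then exposed to vehicle or compounds for 72 h, either singly or combined with PM01183. Combination responses plotted against dose ratio relative to an additivity line.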

[2] = test system: A673 human rhabdomyosarcoma cell line; experiment: cells; conditions: Homo sapiens, A673, 72 h
Outline: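 A673 cells seeded at 5,000 per well, grown 24 h drug-free, then exposed to compounds for 72 h. Viability by MTT reduction (8 h, 37 °C), formazan dissolved in DMSO. Results expressed as percentage of control cell growth.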

[3] = test system: SK-MEL-2 human melanoma cell line; experiment: cells; conditions: Homo sapiens, SK-MEL-2, 72 h
Outline: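 SK-MEL-2 melanoma cells (5,000/well) grown 24 h drug-free, then exposed 72 h to vehicle or test compounds. Viability by MTT reduction (8 h, 37 °C), formazan dissolved in DMSO; results expressed as percentage of control cell growth.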

[4] = test system: PC-3 human prostate cancer cell line; experiment: cells; conditions: Homo sapiens, PC-3, 72 h
Outline: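 Cells seeded at 5,000/well, grown 24 h drug-free, then exposed to vehicle or test compounds for 72 h. Viability by MTT reduction (8 h, 37 °C), formazan dissolved in DMSO. Values given as percentage of control cell growth.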

[5] = test system: IGROV-1 human ovarian adenocarcinoma cell line; experiment: cells; conditions: Homo sapiens, IGROV-1, 72 h
[6] = test system: MDA-MB-231 human breast adenocarcinoma cell line; experiment: cells; conditions: Homo sapiens, MDA-MB-231, 72 h
[7] = test system: RXF-393 human kidney carcinoma cell line; experiment: cells; conditions: Homo sapiens, RXF 393, 72 h
[8] = test system: HT-29 human colon adenocarcinoma cell line; experiment: cells; conditions: Homo sapiens, HT-29, 72 h
Outline: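 HT-29 cells (5,000/well) were attached for 24 h, then exposed to vehicle or compounds for 72 h. Viability was read by MTT reduction, with 8 h MTT at 37° C and formazan dissolved in DMSO. Values are % of control cell growth.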

H460 tumors = experiment: Human lung tumor xenografts (H460) in athymic nude mice, tumor volume % T/C

## COc1ccc2[nH]c3c(c2c1)CCN[C@]31CS[C@@H]2c3c(OC(C)=O)c(C)c4c(c3[C@H](COC1=O)N1[C@@H]2[C@H]2c3c(cc(C)c(OC)c3O)C[C@@H]([C@@H]1O)N2C)OCO4 [PM01183]
[1]
  IC50: 3.6 nM
[2]
  IC50: 2.2 nM
[3]
  IC50: 2 nM
[4]
  IC50: 2.6 nM
[5]
  IC50: 3.2 nM
[6]
  IC50: 3.5 nM
[7]
  IC50: 5 nM
[8]
  IC50: 3.7 nM
H460 tumors; PM01183 0.045 mg/kg
  % T/C on day 0: 108.3%
  % T/C on day 2: 78.7%
  % T/C on day 5: 61.2%
  % T/C on day 7: 67.2%
  % T/C on day 9: 78.8%
  % T/C on day 12: 87.9%
H460 tumors; PM01183 0.09 mg/kg
  % T/C on day 0: 116.9%
  % T/C on day 2: 83.1%
  % T/C on day 5: 83.9%
  % T/C on day 7: 76.9%
  % T/C on day 9: 80.6%
  % T/C on day 12: 84.9%
H460 tumors; PM01183 0.135 mg/kg
  % T/C on day 0: 117.6%
  % T/C on day 2: 77.4%
  % T/C on day 5: 67.5%
  % T/C on day 7: 71.7%
  % T/C on day 9: 66.7%
  % T/C on day 12: 52.9%
H460 tumors; PM01183 0.18 mg/kg
  % T/C on day 0: 114.4%
  % T/C on day 2: 79.6%
  % T/C on day 5: 74.7%
  % T/C on day 7: 75.0%
  % T/C on day 9: 69.1%
  % T/C on day 12: 64.9%

Reference: patent publication US11590129B2, “Combination therapy with an antitumor alkaloid” (PHARMA MAR, S.A., priority 2010, dated 2023)
